# According to PMC6028838, “A new terpene coumarin microbial transformed by Mucor polymorphosporus induces apoptosis of human gastric cancer cell line MGC-803” (Archives of Pharmacal Research, 2018):
# How the values were obtained:
# [1] = test system: human gastric cancer cell line MGC-803; experiment: MTT antiproliferation assay, MGC-803 cells; format: cell-based; settings: 48 h incubation, mean ± SD of triplicate experiments
# Description: (§1) The human gastric cancer cell line MGC-803 and human normal gastric epithelial cell line GES-1 were cultured in DMEM containing penicillin (100 U/mL), streptomycin (100 μg/mL), and 10% FBS at 37 °C with 5% CO2. Cells that used in experiments were passaged at least three times.
# (§2) Cells were seeded in 96-well plates at a density of 5 × 10^4/well and cultured at 37 °C with 5% CO2 for 24 h. And then, compounds (1–5) in various concentrations were introduced with incubation for another 48 h. Finally, 10 μL MTT (5 mg/mL) was added to each well. After 4 h incubation, the medium was removed and 150 μL DMSO was added. Absorbance was read on a Microplate Reader at 570 nm (Bio Tek, Thenceforth, USA) (Li et al. [2014]). The MTT assay aims to evaluate the antiproliferative effects of the test compounds in MGC-803 cells and the cytotoxic effects in GES-1 cells.
# [2] = test system: human normal gastric epithelial cell line GES-1; experiment: MTT cytotoxicity assay, GES-1 cells; format: cell-based; settings: GES1, 48 h incubation, mean ± SD of triplicate experiments
# Description: as §1, §2
# [3] = test system: Bax, Bcl-2 and cleaved caspase-3 in MGC-803 cells; experiment: Western blot of apoptosis-related proteins; format: cell-based, human; settings: MGC-803 cells, 1.0, 2.0, 4.0 μM, 24 h
# Description: The detection of levels of apotosis-related proteins in MGC-803 cells was performed according to the reported western blot method (Zhang et al. [2015a]). Briefly, cells were treated with compound 2 (0, 1.0, 2.0, 4.0 μM) for 24 h and then harvested to detect the protein concentration using the BCA method. Total cellular protein was separated by an SDS/PAGE gel and transferred onto PVDF membranes using a semidry electroblotter. The membrane was blocked with non-fat milk solution (5%) for 1 h, and incubated subsequently with primary antibody at 4 °C overnight. Then TBST was used to wash the primary antibody and incubated with secondary antibody for 1 h at room temperature. Protein bands were visualized by enhanced chemiluminescence (ECL) and β-actin was used as a normalizing control.
# [4] = Solubility in aqueous media; format: physicochemical; settings: thermodynamic equilibrating conditions, compared with 2′-Z auraptene
# MGC-803 cells = experiment: Annexin V-FITC/PI apoptosis assay by flow cytometry; format: cell-based, human; settings: MGC-803 cells, 1.0, 2.0, 4.0 μM, 24 h, compared with the control group
# Description: The apoptosis effect of 2′-Z auraptene A (2) in MGC-803 cells was examined using the Annexin V-FITC/PI detection kit, according to the description of previously reported (Bakar et al. [2016]). Briefly, cells were seeded and treated with compound 2 (0, 1.0, 2.0, 4.0 μM) for 24 h. Cells were harvested and washed twice with cold PBS before incubating with annexin V and PI for 30 min in dark. And then the stained cells were detected and analyzed on FACS Calibur flow cytometry.
Structure (SMILES),IC50 [1] [µM],IC50 [2] [µM],level of Bax protein [3],level of Bcl-2 protein [3],level of cleaved caspase-3 protein [3],limitation of solubility in aqueous media [4],cellular apoptotic rates (MGC-803 cells)
"C/C(=C/C(O)C/C(C)=C\COc1ccc2ccc(=O)oc2c1)CO (stereo not drawn) [Compound 5, 7-(((2′Z,6′Z)-5′,9′-hydroxy-3′,7′-dimethylocta-2′,6′-dien-1′-yl)oxy)-2H-chromen-2-one]",10.8 ± 1.83,35.5 ± 2.21,–,–,–,–,–
"C/C(=C/CC/C(C)=C\COc1ccc2ccc(=O)oc2c1)CO [Compound 3, 7-(((2′Z,6′Z)-9′-hydroxy-3′,7′-dimethylocta-2′,6′-dien-1′-yl)oxy)-2H-chromen-2-one]",4.75 ± 1.02,25.6 ± 2.12,–,–,–,–,–
"C/C(=C/COc1ccc2ccc(=O)oc2c1)CCCO [Compound 2, 2′-Z auraptene A]",0.78 ± 0.13,46 ± 3.11,increase,reduction,increase,improved,increased significantly in a dose-dependent manner
"CC(C)=CCC/C(C)=C\COc1ccc2ccc(=O)oc2c1 [Compound 1, (Z)-7-((3′,7′-dimethylocta-2′,6′-dien-1′-yl)oxy)-2H-chromen-2-one]",10.4 ± 0.86,57 ± 2.31,–,–,–,–,–
"C/C(=C/CC(O)/C(C)=C\COc1ccc2ccc(=O)oc2c1)CO (stereo not drawn) [Compound 4, 7-(((2′Z,6′Z)-4′,9′-hydroxy-3′,7′-dimethylocta-2′,6′-dien-1′-yl)oxy)-2H-chromen-2-one]",6.78 ± 2.06,33.8 ± 1.46,–,–,–,–,–
